Experimental data reported in paper PMC12535076, “Neurotherapeutic effects of Vutiglabridin as a Paraoxonase-2 modulator in preclinical models of Parkinson’s disease” (Molecular Neurodegeneration, 2025).
“And” between values parts separate entries of the source, which are not always exact repeats. Equal values may be shown once.

Columns and labels:
[1] = biological target: T1, P-glycoprotein (P-gp, MDR1) (Homo sapiens, UniProt P08183); test: P-glycoprotein (P-gp) efflux assay in cell monolayers; type: in vitro ADME; settings: MDCKII, MDCKII-hMDR1 and Caco-2 monolayers, with and without P-gp inhibitor GF120918
T1 construct: expressed in transfected cells; host or cells: MDCKII-hMDR1 (canine kidney cells carrying human MDR1); also parental MDCKII and Caco-2 (endogenous human P-gp)
T1 sequence (P08183 whole entry): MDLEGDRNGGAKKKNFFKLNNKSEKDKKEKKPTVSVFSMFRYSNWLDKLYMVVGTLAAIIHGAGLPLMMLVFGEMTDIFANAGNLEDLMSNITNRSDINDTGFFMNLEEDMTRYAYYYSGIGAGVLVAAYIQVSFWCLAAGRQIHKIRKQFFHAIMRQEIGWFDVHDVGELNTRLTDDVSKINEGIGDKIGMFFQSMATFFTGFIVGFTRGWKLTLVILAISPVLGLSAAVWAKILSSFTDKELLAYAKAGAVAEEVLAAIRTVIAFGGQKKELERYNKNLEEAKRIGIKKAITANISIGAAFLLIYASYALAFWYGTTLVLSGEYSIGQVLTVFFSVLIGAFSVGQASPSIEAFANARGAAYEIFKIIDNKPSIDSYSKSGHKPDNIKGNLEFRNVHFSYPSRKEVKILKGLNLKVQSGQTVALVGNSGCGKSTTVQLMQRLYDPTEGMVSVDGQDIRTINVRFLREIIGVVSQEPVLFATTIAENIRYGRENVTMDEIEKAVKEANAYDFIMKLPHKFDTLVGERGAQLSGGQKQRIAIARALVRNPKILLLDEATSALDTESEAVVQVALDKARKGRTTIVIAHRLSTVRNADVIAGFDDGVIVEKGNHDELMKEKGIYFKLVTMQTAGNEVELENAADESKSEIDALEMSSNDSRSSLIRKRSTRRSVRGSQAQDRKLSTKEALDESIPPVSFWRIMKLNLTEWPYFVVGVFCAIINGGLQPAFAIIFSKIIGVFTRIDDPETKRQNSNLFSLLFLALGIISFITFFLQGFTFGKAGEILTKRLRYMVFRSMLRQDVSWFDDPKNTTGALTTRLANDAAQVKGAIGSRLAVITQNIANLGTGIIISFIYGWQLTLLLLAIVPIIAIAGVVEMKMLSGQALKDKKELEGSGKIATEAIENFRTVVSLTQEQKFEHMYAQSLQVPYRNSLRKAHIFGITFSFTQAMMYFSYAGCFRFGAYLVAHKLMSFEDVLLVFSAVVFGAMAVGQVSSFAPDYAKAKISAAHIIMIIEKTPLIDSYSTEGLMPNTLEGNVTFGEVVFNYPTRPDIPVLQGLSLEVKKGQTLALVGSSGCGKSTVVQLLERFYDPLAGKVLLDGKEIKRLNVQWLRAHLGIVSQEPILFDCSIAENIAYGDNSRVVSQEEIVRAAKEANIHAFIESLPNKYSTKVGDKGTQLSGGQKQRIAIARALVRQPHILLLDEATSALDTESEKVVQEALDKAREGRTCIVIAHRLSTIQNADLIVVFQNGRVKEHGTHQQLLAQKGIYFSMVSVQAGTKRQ
Protocol: P-gp efflux ratio was determined in MDCKII-hMDR1, MDCKII [61], and Caco-2 cell monolayer via LC-MS/MS analysis, in accordance with the standard FDA guideline on transporter-mediated drug interactions. 10 µM of GF120918 was used as P-gp inhibitor. The apical (A-to-B) and basolateral (B-to-A) permeability coefficient (Papp) were measured to yield the efflux ratio.
(a) Measurement of Vuti concentration in octanol and aqueous phase (pH7.4 phosphate buffer) via HPLC. The mean value of three replicates was used, and the limit of quantification (LOQ) value was used to calculate Log D as a log of concentration in the octanol phase divided by the concentration in the aqueous phase. (b) Efflux ratios (Papp(B→A)/Papp(A→B)) of Vuti in three types of cell monolayers, with or without P-glycoprotein (P-gp) inhibitor GF120918. (c) Schematic of 14C-labeling of Vuti. Attachment to the ethoxy group is warranted because it is robustly maintained throughout metabolism. (d) Plasma radioactivity concentration in Sprague-Dawley rats after a single administration of 10 mg/kg of 14C-Vuti (n = 3).

[2] = biological target: T2, MAO-A (Homo sapiens, UniProt P21397); test: HRP/Amplex red based MAO-A enzyme activity assay; type: biochemical; settings: read-out: IC50, MAO-A assay, HRP/AR method
T2 sequence (P21397 1-527): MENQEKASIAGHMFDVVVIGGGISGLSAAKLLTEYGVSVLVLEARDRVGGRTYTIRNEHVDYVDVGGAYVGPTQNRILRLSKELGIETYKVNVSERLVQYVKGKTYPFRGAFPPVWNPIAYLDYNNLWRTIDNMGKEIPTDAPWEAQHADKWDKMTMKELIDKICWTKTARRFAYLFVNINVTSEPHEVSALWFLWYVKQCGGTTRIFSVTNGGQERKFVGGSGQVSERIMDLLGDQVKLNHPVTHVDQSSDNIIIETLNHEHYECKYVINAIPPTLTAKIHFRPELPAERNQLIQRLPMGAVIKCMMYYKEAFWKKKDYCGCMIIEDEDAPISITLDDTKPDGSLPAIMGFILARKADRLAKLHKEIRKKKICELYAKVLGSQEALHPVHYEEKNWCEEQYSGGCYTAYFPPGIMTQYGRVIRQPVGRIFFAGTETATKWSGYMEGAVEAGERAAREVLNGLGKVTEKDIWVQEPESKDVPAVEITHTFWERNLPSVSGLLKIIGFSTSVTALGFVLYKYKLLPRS
Protocol: MAO-A or MAO-B enzyme solutions were prepared by diluting 10 µL of a 2.5 mg/mL MAO-A or MAO-B stock into 10 mL of 50 mM sodium phosphate buffer (pH 7.4). A substrate assay mixture was then prepared by combining benzylamine (for MAO-B) or tyramine (for MAO-A) from a 100 mM stock (200 µL in 10 mL phosphate buffer, final concentration 1 mM) with 100 µL of a 20 mM AR reagent stock (final concentration 0.1 mM) and 100 µL of a 200 U/mL HRP stock (final concentration 1 U/mL) in 10 mL phosphate buffer. […] Next, 50 µL of the substrate assay mixture was added, and the reaction was carried out at 37 °C for 60 min. The production of resorufin was quantified by fluorescence measurement (excitation at 540 nm and emission at 580 nm).

[3] = biological target: T3, recombinant human PON2 (rePON2) (Homo sapiens, UniProt Q15165); test: Mass spectrometry-based binding assay; settings: 10 nM Vuti incubated with rePON2 0-500 nM for 30 min, LC-MS/MS; read-out: dissociation constant (Kd)
T3 construct: made in house; host or cells: E. coli BL21 (DE3), pET21b
T3 sequence (Q15165 1-354 isoform Q15165-1): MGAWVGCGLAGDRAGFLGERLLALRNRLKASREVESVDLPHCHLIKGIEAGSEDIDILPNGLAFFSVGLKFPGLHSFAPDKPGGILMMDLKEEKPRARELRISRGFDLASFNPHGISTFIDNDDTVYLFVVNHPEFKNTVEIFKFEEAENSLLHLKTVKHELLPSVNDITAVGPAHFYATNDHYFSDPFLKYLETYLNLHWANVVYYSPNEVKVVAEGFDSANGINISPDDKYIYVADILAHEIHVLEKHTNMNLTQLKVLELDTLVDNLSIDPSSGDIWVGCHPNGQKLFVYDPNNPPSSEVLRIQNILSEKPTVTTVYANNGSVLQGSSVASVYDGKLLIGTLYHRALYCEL
Excerpt: The codon-optimization of HsPON2 was for Escherichia coli system and synthesized according to the full-length open reading frame (GenBank accession No. AAC41995.1) from National Center for Biotechnology Information (NCBI; http://www.ncbi.nlm.nih.gov). The HsPON2 gene was amplified by a standard PCR method with a primer set (Forward; 5’-[…]-3’, Reverse; 5’-[…]-3’) and inserted into an expression vector (pET21b; New England Biolabs, USA) using NdeI and XhoI restriction enzyme sites (underlined). […] The recombinant construct was transformed into E. coli BL21 (DE3) competent cells. The transformed cells were activated overnight and transferred to 1 L of LB broth (BD bioscience, USA) with 100 µg/mL ampicillin (Duchefa Biochemie, The Netherlands) containing 0.1% glucose, and then incubated at 37 ℃ and 200 rpm in incubator (Vision Scientific, Korea) until reaching the optical density of 0.6–0.8 at 600 nm (OD600). […] The eluted HsPON2 protein was analyzed by a 12% SDS-PAGE and concentrated up to approximately 1 mL by 10 kDa filter-size amicon (Merck Millipore, USA). […]
The method followed the concept of previously established protocol. […] The supernatant, which now contains rePON2-bound Vuti, was collected, dried, and re-suspended in acetonitrile, and the drug quantification was performed via LC-MS/MS analysis.

Q: How did the “efflux ratio (Papp(B→A)/Papp(A→B))” value [1] turn out when `CCOc1ccc(C2COc3c(ccc4c3CCC(C)(C)O4)C2)c(O)c1` (stereo not drawn) [Vuti, Vutiglabridin] was run?
A: The value was “low efflux ratio”.

Q: And the IC50 [2]?
A: The IC50 was 288000 nM.

Q: What about the Kd [3] of the same compound?
A: Its Kd is 78.9 nM and 78 nM.
